Measured values reported in patent US11242337B2, “Compounds useful for treating gastrointestinal tract disorders” (Ardelyx, Inc., priority 2017, dated 2022).

System: not given
Test: not given
Details: human absorption data, from Ertl et al., J. Med. Chem, 2000; cited from earlier work

Row | SMILES | % FA [%]
1 | Cc1ccccc1N1C(=O)c2cc(S(N)(=O)=O)c(Cl)cc2NC1C (stereo not drawn) [metolazone, Metolazone, reference compound] | 64
2 | O=C(O)c1cc(/N=N/c2ccc(O)c(C(=O)O)c2)ccc1O [olsalazine] | 2.3
3 | O=C(O)c1cc(/N=N/c2ccc(S(=O)(=O)Nc3ccccn3)cc2)ccc1O [sulfasalazine, reference compound] | 12
4 | NC[C@H]1CC[C@H](C(=O)O)CC1 [tranexamic acid] | 55
5 | CCN1CCCC1CNC(=O)c1cc(S(N)(=O)=O)ccc1OC (stereo not drawn) [sulpiride] | 36
6 | C=CCOc1ccccc1OCC(O)CNC(C)C (stereo not drawn) [ozprenolol] | 97
7 | OC[C@H]1O[C@H](OC[C@H]2O[C@H](O[C@]3(CO)O[C@H](CO)[C@@H](O)[C@@H]3O)[C@H](O)[C@@H](O)[C@@H]2O)[C@H](O)[C@@H](O)[C@H]1O [raffinose] | 0.3
8 | CC(=O)Nc1ccc(OCC(O)CNC(C)C)cc1 (stereo not drawn) [practolol] | 95
9 | OC[C@H]1O[C@@H](O[C@@H]2[C@@H](CO)OC(O)(CO)[C@H]2O)[C@H](O)[C@@H](O)[C@H]1O (mixture of isomers) [lactulose, reference compound] | 0.6
10 | OC[C@@H](O)[C@@H](O)[C@H](O)[C@H](O)CO [mannitol, reference compound] | 26
11 | Cc1cc(=O)n(-c2ccccc2)n1C [phenazone] | 97
12 | CC(C)NCC(O)COc1cccc2[nH]ccc12 (stereo not drawn) [pindolol] | 92
13 | C=CCc1ccccc1OCC(O)CNC(C)C (stereo not drawn) [alprenolol] | 96
14 | O=C(O)P(=O)(O)O [foscarnet] | 17

System: gastrointestinal transit
Test: Restoration of gastrointestinal motility in opioid induced constipation (loperamide)
Assay type: in vivo, mice
Details: vehicle orally, loperamide (0.3 to 6 mg/kg) subcutaneously, 30-minute period
Method: Approximately eight-week old, female, CD1 […] are purchased from Envigo (Livermore, Calif.), are housed 4 per cage and acclimated for at least 48 hours before study initiation. Animals are fed standard laboratory rodent chow Harlan Teklad Global 2018 (Madison, Wis.). Animals have ad libitum access to food and water for the duration of the acclimation period and are maintained in a temperature and humidity controlled room on a standard light/dark cycle of 6 AM to 6 PM. Following an overnight fast, with free access to water, animals are dosed by oral gavage with varying doses of test compound or vehicle (3 mM HCl, 0.01% Tween80), at a dose volume of 5 mL/kg. […] For an individual animal, the length travels by the Evans Blue dye front is divided by the length of the whole small intestine, measured from the pylorus to the cecum, and multiplied by 100, to provide the distance of the small intestine travelled by the dye as a percentage.

Row | SMILES | length of the small intestine travelled by the Evans Blue dye front [%]
15 | CN(C)C(=O)C(CCN1CCC(O)(c2ccc(Cl)cc2)CC1)(c1ccccc1)c1ccccc1 [loperamide, reference compound] | ~25
